In US5840684A, “Glycopeptide antibiotic derivatives” (Eli Lilly and Company, priority 1995, dated 1998):
Converted amounts (≈) assume the structure as drawn.

Experiments:
[1] = tested on: Staphylococcus aureus S13E; format: cell-based
Experimental: (§1) The MIC's were determined using a standard broth micro-dilution assay.

[2] = tested on: Staphylococcus aureus SA1199B; format: cell-based
Experimental: as §1

[3] = tested on: vancomycin-resistant enterococci; assay: broth micro-dilution, mean geometric MIC; format: cell-based, Enterococcus faecium and Enterococcus faecalis; details: enterococci, 24-hour incubation
[4] = tested on: Staphylococcus haemolyticus 415; assay: broth micro-dilution MIC; format: cell-based
Experimental: (§2) The formula I compounds have in vitro and in vivo activity against Gram-positive pathogenic bacteria. The MIC's were determined using a standard broth micro-dilution assay.

[5] = tested on: Haemophilus influenzae RD; assay: broth micro-dilution MIC; format: cell-based; details: Haemophilus influenzae RD
Experimental: as §2

Entercoccus faecium 2041 = assay: broth micro-dilution MIC; format: cell-based; details: Entercoccus faecium 2041
Experimental: as §2

[6] = tested on: Staphylococcus haemolyticus 105; assay: broth micro-dilution MIC; format: cell-based
Experimental: as §2

Escherichia coli EC14 = assay: broth micro-dilution MIC; format: cell-based
Experimental: as §2

[7] = tested on: Staphylococcus epidermidis 270; assay: broth micro-dilution MIC; format: cell-based
Experimental: as §2

[8] = tested on: Streptococcus pneumoniae P1; assay: broth micro-dilution MIC; format: cell-based
Experimental: as §2

Entercoccus faecium 180 = assay: broth micro-dilution MIC; format: cell-based; details: Entercoccus faecium 180
Experimental: as §2

[9] = tested on: Enterococcus gallinarum 245; assay: broth micro-dilution MIC; format: cell-based; details: Enterococcus gallinarum 245
Experimental: as §2

[10] = tested on: Staphylococcus aureus SA1199A; assay: broth micro-dilution MIC; format: cell-based
Experimental: as §1

[11] = tested on: Staphylococcus aureus 489; assay: broth micro-dilution MIC; format: cell-based
Experimental: as §1

[12] = tested on: Staphylococcus aureus SA1199; assay: broth micro-dilution MIC; format: cell-based
Experimental: as §1

[13] = tested on: Staphylococcus aureus 446; assay: broth micro-dilution MIC; format: cell-based
Experimental: as §1

[14] = tested on: Staphylococcus aureus 447; assay: broth micro-dilution MIC; format: cell-based
Experimental: as §1

Entercoccus faecium 276 = assay: broth micro-dilution MIC; format: cell-based
Experimental: as §1

[15] = tested on: Staphylococcus aureus X778; assay: broth micro-dilution MIC; format: cell-based
Experimental: as §1

[16] = tested on: Entercoccus faecium 180-1; assay: broth micro-dilution MIC; format: cell-based
Experimental: as §1

[17] = tested on: Streptococcus pyogenes C203; assay: broth micro-dilution MIC; format: cell-based
Experimental: as §1

[18] = tested on: Staphylococcus aureus X400; assay: broth micro-dilution MIC; format: cell-based
Experimental: as §1

[19] = tested on: Staphylococcus aureus 491; assay: broth micro-dilution MIC; format: cell-based
Experimental: as §1

[20] = tested on: vancomycin-susceptible enterococci; assay: broth micro-dilution, mean geometric MIC; format: cell-based, Enterococcus faecium and Enterococcus faecalis; details: enterococci, 24-hour incubation
Streptococcus pneumoniae = assay: mouse protection, experimentally-induced infection; format: in vivo; details: mice infected with Streptococcus pneumoniae, two doses
Streptococcus pyogenes = assay: mouse protection, experimentally-induced infection; format: in vivo; details: mice infected with Streptococcus pyogenes, two doses

Structure (SMILES)	MIC [1]	MIC [2]	mean geometric MIC, Vancomycin Resistant Strains [3]	MIC [4]	MIC [5]	MIC (Entercoccus faecium 2041)	MIC [6]	MIC (Escherichia coli EC14)	MIC [7]	MIC [8]	MIC (Entercoccus faecium 180)	MIC [9]	MIC [10]	MIC [12]	MIC [13]	MIC [15]	MIC [16]	MIC [17]	MIC [18]	mean geometric MIC, Vancomycin Sensitive Strains [20]	further results
CNC(CC(C)C)C(=O)NC1C(=O)NC(CC(N)=O)C(=O)NC2C(=O)NC3C(=O)NC(C(=O)NC(C(=O)O)c4cc(O)cc(O)c4-c4cc3ccc4O)C(OC3CC(C)(NCc4ccc(OCCOC(C)(C)C)cc4)C(O)C(C)O3)c3ccc(c(Cl)c3)Oc3cc2cc(c3OC2OC(CO)C(O)C(O)C2OC2CC(C)(NCc3ccc(OCCOC(C)(C)C)cc3)C(O)C(C)O2)Oc2ccc(cc2Cl)C1O (centres unmarked) [Compound 288]	2 µg/mL (≈ 0.997 µM)	1 µg/mL (≈ 0.499 µM)	11 µg/mL	4 µg/mL (≈ 1.99 µM)	> 64 µg/mL	1 µg/mL (≈ 0.499 µM)	2 µg/mL (≈ 0.997 µM)	> 64 µg/mL	1 µg/mL (≈ 0.499 µM)	≤ 0.06 µg/mL	4 µg/mL (≈ 1.99 µM)	2 µg/mL (≈ 0.997 µM)	1 µg/mL (≈ 0.499 µM)	2 µg/mL (≈ 0.997 µM)	2 µg/mL (≈ 0.997 µM)	2 µg/mL (≈ 0.997 µM)	1 µg/mL (≈ 0.499 µM)	≤ 0.06 µg/mL	2 µg/mL (≈ 0.997 µM)	1.7 µg/mL	MIC [11]: 2 µg/mL (≈ 0.997 µM); MIC [14]: 2 µg/mL (≈ 0.997 µM); MIC (Entercoccus faecium 276): 2 µg/mL (≈ 0.997 µM); MIC [19]: 2 µg/mL (≈ 0.997 µM)
COc1ccc2ccccc2c1CNC1(C)CC(OC2C(Oc3c4cc5cc3Oc3ccc(cc3Cl)C(OC3CC(C)(N)C(O)C(C)O3)C3NC(=O)C(NC(=O)C5NC(=O)C(CC(N)=O)NC(=O)C(NC(=O)C(CC(C)C)N(C)Cc5c(OC)ccc6ccccc56)C(O)c5ccc(c(Cl)c5)O4)c4ccc(O)c(c4)-c4c(O)cc(O)cc4C(C(=O)O)NC3=O)OC(CO)C(O)C2O)OC(C)C1O (centres unmarked) [Compound 282]	16 µg/mL (≈ 8.28 µM)	16 µg/mL (≈ 8.28 µM)	45 µg/mL	> 64 µg/mL	> 64 µg/mL	4 µg/mL (≈ 2.07 µM)	> 64 µg/mL	> 64 µg/mL	> 64 µg/mL	≤ 0.06 µg/mL	32 µg/mL (≈ 16.6 µM)	> 64 µg/mL	1 µg/mL (≈ 0.517 µM)	16 µg/mL (≈ 8.28 µM)	32 µg/mL (≈ 16.6 µM)	16 µg/mL (≈ 8.28 µM)	1 µg/mL (≈ 0.517 µM)	≤ 0.06 µg/mL	16 µg/mL (≈ 8.28 µM)	2.6 µg/mL	MIC [11]: 8 µg/mL (≈ 4.14 µM); MIC [14]: > 64 µg/mL; MIC (Entercoccus faecium 276): 4 µg/mL (≈ 2.07 µM); MIC [19]: 16 µg/mL (≈ 8.28 µM)
CN[C@H](CC(C)C)C(=O)N[C@H]1C(=O)N[C@@H](CC(N)=O)C(=O)N[C@H]2C(=O)N[C@H]3C(=O)N[C@H](C(=O)N[C@H](C(=O)O)c4cc(O)cc(O)c4-c4cc3ccc4O)[C@H](O[C@H]3C[C@](C)(N)[C@@H](O)[C@H](C)O3)c3ccc(c(Cl)c3)Oc3cc2cc(c3O[C@@H]2O[C@H](CO)[C@@H](O)[C@H](O)[C@H]2O[C@H]2C[C@](C)(NCc3ccc(OCc4ccc(Cl)cc4)cc3)[C@@H](O)[C@H](C)O2)Oc2ccc(cc2Cl)[C@H]1O [Compound 93]	1 µg/mL (≈ 0.549 µM)	1 µg/mL (≈ 0.549 µM)	0.42 µg/mL	1 µg/mL (≈ 0.549 µM)	–	≤ 0.06 µg/mL	1 µg/mL (≈ 0.549 µM)	–	1 µg/mL (≈ 0.549 µM)	≤ 0.06 µg/mL	≤ 0.06 µg/mL	1 µg/mL (≈ 0.549 µM)	≤ 0.06 µg/mL	2 µg/mL (≈ 1.1 µM)	2 µg/mL (≈ 1.1 µM)	1 µg/mL (≈ 0.549 µM)	≤ 0.06 µg/mL	≤ 0.06 µg/mL	≤ 0.06 µg/mL	0.042 µg/mL	ED50 (Streptococcus pneumoniae): 0.012 mg/kg/2; ED50 (Streptococcus pyogenes): 0.074 mg/kg/2
CC(C)CC(C(=O)NC1C(=O)NC(CC(N)=O)C(=O)NC2C(=O)NC3C(=O)NC(C(=O)NC(C(=O)O)c4cc(O)cc(O)c4-c4cc3ccc4O)C(OC3CC(C)(N)C(O)C(C)O3)c3ccc(c(Cl)c3)Oc3cc2cc(c3OC2OC(CO)C(O)C(O)C2OC2CC(C)(NCc3ccc(Oc4ccccc4)cc3)C(O)C(C)O2)Oc2ccc(cc2Cl)C1O)N(C)Cc1ccc(Oc2ccccc2)cc1 (centres unmarked) [Compound 247]	0.5 µg/mL (≈ 0.256 µM)	0.5 µg/mL (≈ 0.256 µM)	2.4 µg/mL	2 µg/mL (≈ 1.02 µM)	> 64 µg/mL	0.125 µg/mL (≈ 0.0639 µM)	1 µg/mL (≈ 0.511 µM)	> 64 µg/mL	1 µg/mL (≈ 0.511 µM)	≤ 0.06 µg/mL	0.5 µg/mL (≈ 0.256 µM)	0.125 µg/mL (≈ 0.0639 µM)	≤ 0.06 µg/mL	1 µg/mL (≈ 0.511 µM)	0.5 µg/mL (≈ 0.256 µM)	0.5 µg/mL (≈ 0.256 µM)	≤ 0.06 µg/mL	≤ 0.06 µg/mL	0.5 µg/mL (≈ 0.256 µM)	0.29 µg/mL	MIC [11]: 0.25 µg/mL (≈ 0.128 µM); MIC [14]: 1 µg/mL (≈ 0.511 µM); MIC (Entercoccus faecium 276): 0.25 µg/mL (≈ 0.128 µM); MIC [19]: 0.5 µg/mL (≈ 0.256 µM)
